Patent US20130310344A1, “N-ACYLSULFONAMIDE APOPTOSIS PROMOTERS” (ASTRAZENECA AB, priority 2010, published 2013)
Structures can show the parent of a compound that is named as a salt.

How the values were obtained:
[1] = molecular target: T1, Bcl-2 (Homo sapiens, UniProt P10415); assay: Bcl-2 FP assay (competitive fluorescence polarization binding assay, FITC-Bim BH-3 peptide tracer); conditions: c-terminal 6×HIS tagged Bcl-2 (aa 1-204), 1.3 nM; 2 nM FITC-Bim peptide tracer
T1 construct: a c-terminal 6×HIS tagged Bcl-2 (aa 1-204); 6xHis (C)
T1 sequence (P10415 1-204): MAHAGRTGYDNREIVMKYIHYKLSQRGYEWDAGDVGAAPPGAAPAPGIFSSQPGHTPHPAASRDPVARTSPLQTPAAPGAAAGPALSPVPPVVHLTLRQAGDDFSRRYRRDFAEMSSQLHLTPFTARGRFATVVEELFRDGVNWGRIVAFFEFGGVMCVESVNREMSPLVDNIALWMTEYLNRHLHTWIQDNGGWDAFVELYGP
Excerpt: (§1) Bcl-xL and Bcl-2 FP binding affinity of compound(s) of Formulae (I), (I-a), (I-b), (I-c), (I-d) and/or (I-e) may be determined using a variety of known methods. One such assay is a sensitive and quantitative in vitro binding assay using fluorescence polarization (“FP”) described by Wang, J.-L.; Zhang, Z-J.; Choksi, S.; Sjam. S.; Lu, Z.; Croce, C. M.; Alnemri, E. S.; Komgold, R.; Huang, Z. Cell permeable Bcl-2 binding peptides: a chemical approach to apoptosis induction in tumor cells. Cancer Res. 2000, 60, 1498-1502).
(§2) Additionally, the binding affinity of compound(s) of Formulae (I), (I-a), (I-b), (I-c), (I-d) and/or (I-e) to Bcl-2 protein in vitro was determined by a competitive binding assay based on fluorescence polarization. For example, fluorescence polarization (“FP”) assays may be developed using a c-terminal 6×HIS tagged Bcl-2 (aa 1-204) and a C-terminal 6×HIS tagged Bcl-XL (aa 1-209). […] Dilutions of either Bcl-2 (1.3 nM) or Bcl-XL (0.8 nM) may be added to serial dilutions of antagonist and incubated for one hour prior to the addition of 2 nM of fluorescent peptide tracer (Anaspec, Fremont, Calif.) in the assay buffer. Final assay buffer conditions may be 20 mM HEPES, pH 7.5, 1 mM DTT, 0.005% Tween-20 and 50 mM NaCl. Samples may be read after 20-minute incubation. Fluorescence polarization values may be plotted as a function of the antagonist concentration.

[2] = molecular target: T2, Bcl-XL (Homo sapiens, UniProt Q07817); assay: Bcl-XL FP assay (competitive fluorescence polarization binding assay, FITC-Bim BH-3 peptide tracer); conditions: C-terminal 6×HIS tagged Bcl-XL (aa 1-209), 0.8 nM; 2 nM FITC-Bim peptide tracer
T2 construct: a C-terminal 6×HIS tagged Bcl-XL (aa 1-209); 6xHis (C)
T2 sequence (Q07817 1-209): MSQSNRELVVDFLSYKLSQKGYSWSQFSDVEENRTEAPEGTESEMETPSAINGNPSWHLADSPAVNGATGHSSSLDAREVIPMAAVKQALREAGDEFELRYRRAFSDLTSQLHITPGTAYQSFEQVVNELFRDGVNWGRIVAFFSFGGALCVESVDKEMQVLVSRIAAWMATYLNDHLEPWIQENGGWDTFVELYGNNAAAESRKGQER
Excerpt: as §1, §2

Row | IC50 [1] | IC50 [2] | SMILES
1 | 0.3 nM | 1 nM | CN(C)CC[C@H](CSc1ccccc1)Nc1ccc(S(=O)(=O)NC(=O)c2ccc(N3CCC([C@@H](O)c4ccccc4-c4ccc(Cl)cc4)CC3)cc2)cc1[N+](=O)[O-] [Example 2, 4-(4-((R)-(4′-chlorobiphenyl-2-yl)(hydroxy)methyl)piperidin-1-yl)-N-(4-((R)-4-(dimethylamino)-1-(phenylthio)butan-2-ylamino)-3-nitrophenylsulfonyl)benzamide]
2 | 24 nM | 18 nM | CN(C)[C@@H](c1ccccc1-c1ccc(Cl)cc1)C1CCN(c2ccc(C(=O)NS(=O)(=O)c3ccc(N[C@H](CCN4CCOCC4)CSc4ccccc4)c(S(=O)(=O)C(F)(F)F)c3)cc2)CC1 [Example 36, 4-(4-((R)-(4′-chlorobiphenyl-2-yl)(dimethylamino)methyl)piperidin-1-yl)-N-(4-((R)-4-morpholino-1-(phenylthio)butan-2-ylamino)-3-(trifluoromethylsulfonyl)phenylsulfonyl)benzamide, hydrochloride salt]
3 | 253 nM | 78 nM | O=C(NS(=O)(=O)c1ccc(N[C@H](CCN2CCOCC2)CSc2ccccc2)c(S(=O)(=O)C(F)(F)F)c1)c1ccc(N2CCC([C@H](O)c3ccccc3-c3ccc(Cl)cc3)CC2)cc1 [Example 14, 4-(4-((S)-(4′-chlorobiphenyl-2-yl)(hydroxy)methyl)piperidin-1-yl)-N-(4-((R)-4-morpholino-1-(phenylthio)butan-2-ylamino)-3-(trifluoromethylsulfonyl)phenylsulfonyl)benzamide]
4 | 38 nM | 22 nM | NCC(=O)N[C@@H](c1ccccc1-c1ccc(Cl)cc1)C1CCN(c2ccc(C(=O)NS(=O)(=O)c3ccc(N[C@H](CCN4CCOCC4)CSc4ccccc4)c(S(=O)(=O)C(F)(F)F)c3)cc2)CC1 [Example 35, 4-(4-((R)-(2-aminoacetamido)(4′-chlorobiphenyl-2-yl)methyl)piperidin-1-yl)-N-(4-((R)-4-morpholino-1-(phenylthio)butan-2-ylamino)-3-(trifluoromethylsulfonyl)phenylsulfonyl)benzamide hydrochloride salt]
5 | 0.3 nM | 1 nM | CCN(CC)C[C@H]1COCCN1CC[C@H](CSc1ccccc1)Nc1ccc(S(=O)(=O)NC(=O)c2ccc(N3CCC([C@@H](O)c4ccccc4-c4ccc(Cl)cc4)CC3)cc2)cc1S(=O)(=O)C(F)(F)F [Example 20, 4-(4-((R)-(4′-chlorobiphenyl-2-yl)(hydroxy)methyl)piperidin-1-yl)-N-(4-((R)-4-((S)-3-((diethylamino)methyl)morpholino)-1-(phenylthio)butan-2-ylamino)-3-(trifluoromethylsulfonyl)phenylsulfonyl)benzamide]
6 | 0.5 nM | 0.8 nM | CCN(CCO)CC[C@H](CSc1ccccc1)Nc1ccc(S(=O)(=O)NC(=O)c2ccc(N3CCC([C@@H](O)c4ccccc4-c4ccc(Cl)cc4)CC3)cc2)cc1S(=O)(=O)C(F)(F)F [Example 4, 4-(4-((R)-(4′-chlorobiphenyl-2-yl)(hydroxy)methyl)piperidin-1-yl)-N-(4-((R)-4-(ethyl(2-hydroxyethyl)amino)-1-(phenylthio)butan-2-ylamino)-3-(trifluoromethylsulfonyl)phenylsulfonyl)benzamide]
7 | 0.7 nM | 1 nM | O=C(NS(=O)(=O)c1ccc(N[C@H](CCN2CCN(CCOP(=O)(O)O)CC2)CSc2ccccc2)c(S(=O)(=O)C(F)(F)F)c1)c1ccc(N2CCC([C@@H](O)c3ccccc3-c3ccc(Cl)cc3)CC2)cc1 [Example 10, 2-(4-((R)-3-(4-(N-(4-(4-((R)-(4′-chlorobiphenyl-2-yl)(hydroxy)methyl)piperidin-1-yl)benzoyl)sulfamoyl)-2-(trifluoromethylsulfonyl)phenylamino)-4-(phenylthio)butyl)piperazin-1-yl)ethyl dihydrogen phosphate]
8 | 2 nM | 1 nM | O=C(NS(=O)(=O)c1ccc(N[C@H](CCN(CCOP(=O)(O)O)CCOP(=O)(O)O)CSc2ccccc2)c(S(=O)(=O)C(F)(F)F)c1)c1ccc(N2CCC([C@@H](O)c3ccccc3-c3ccc(Cl)cc3)CC2)cc1 [Example 7, 2,2′-((R)-3-(4-(N-(4-(4-((R)-(4′-chlorobiphenyl-2-yl)(hydroxy)methyl)piperidin-1-yl)benzoyl)sulfamoyl)-2-(trifluoromethylsulfonyl)phenylamino)-4-(phenylthio)butylazanediyl)bis(ethane-2,1-diyl)bis(dihydrogen phosphate), hydrochloride salt]
9 | 0.9 nM | 1 nM | CCN(CCOP(=O)(O)O)CC[C@H](CSc1ccccc1)Nc1ccc(S(=O)(=O)NC(=O)c2ccc(N3CCC([C@@H](O)c4ccccc4-c4ccc(Cl)cc4)CC3)cc2)cc1S(=O)(=O)C(F)(F)F [Example 8, 2-(((R)-3-(4-(N-(4-(4-((R)-(4′-chlorobiphenyl-2-yl)(hydroxy)methyl)piperidin-1-yl)benzoyl)sulfamoyl)-2-(trifluoromethylsulfonyl)phenylamino)-4-(phenylthio)butyl)(ethyl)amino)ethyl dihydrogen phosphate, hydrochloride salt]

Row | SMILES | IC50 [1] | IC50 [2]
10 | CN(CCO)CC[C@H](CSc1ccccc1)Nc1ccc(S(=O)(=O)NC(=O)c2ccc(N3CCC([C@@H](N)c4ccccc4-c4ccc(Cl)cc4)CC3)cc2)cc1S(=O)(=O)C(F)(F)F [Example 11, 4-(4-((R)-amino(4′-chlorobiphenyl-2-yl)methyl)piperidin-1-yl)-N-(4-((R)-4-((2-hydroxyethyl)(methyl)amino)-1-(phenylthio)butan-2-ylamino)-3-(trifluoromethylsulfonyl)phenylsulfonyl)benzamide, formic acid salt] | 4 nM | 3 nM
11 | O=C(NS(=O)(=O)c1ccc(N[C@H](CCN2CCO[C@@H](CO)C2)CSc2ccccc2)c(S(=O)(=O)C(F)(F)F)c1)c1ccc(N2CCC([C@@H](O)c3ccccc3-c3ccc(Cl)cc3)CC2)cc1 [Example 22, 4-(4-((R)-(4′-chlorobiphenyl-2-yl)(hydroxy)methyl)piperidin-1-yl)-N-(4-((R)-4-((R)-2-(hydroxymethyl)morpholino)-1-(phenylthio)butan-2-ylamino)-3-(trifluoromethylsulfonyl)phenylsulfonyl)benzamide, formic acid salt] | 0.6 nM | 3 nM
12 | N[C@@H](c1ccccc1-c1ccc(Cl)cc1)C1CCN(c2ccc(C(=O)NS(=O)(=O)c3ccc(N[C@H](CCN4CCN(CCO)CC4)CSc4ccccc4)c(S(=O)(=O)C(F)(F)F)c3)cc2)CC1 [Example 13, 4-(4-((R)-amino(4′-chlorobiphenyl-2-yl)methyl)piperidin-1-yl)-N-(4-((R)-4-(4-(2-hydroxyethyl)piperazin-1-yl)-1-(phenylthio)butan-2-ylamino)-3-(trifluoromethylsulfonyl)phenylsulfonyl)benzamide, formic acid salt] | 16 nM | 15 nM
13 | CCN(CCO)CC[C@H](CSc1ccccc1)Nc1ccc(S(=O)(=O)NC(=O)c2ccc(N3CCC([C@@H](N)c4ccccc4-c4ccc(Cl)cc4)CC3)cc2)cc1S(=O)(=O)C(F)(F)F [Example 12, 4-(4-((R)-amino(4′-chlorobiphenyl-2-yl)methyl)piperidin-1-yl)-N-(4-((R)-4-(ethyl(2-hydroxyethyl)amino)-1-(phenylthio)butan-2-ylamino)-3-(trifluoromethylsulfonyl)phenylsulfonyl)benzamide, formic acid salt] | 3 nM | 3 nM
14 | CCOP(=O)(OCC)O[C@@H](c1ccccc1-c1ccc(Cl)cc1)C1CCN(c2ccc(C(=O)NS(=O)(=O)c3ccc(N[C@H](CCN4CCOCC4)CSc4ccccc4)c(S(=O)(=O)C(F)(F)F)c3)cc2)CC1 [Example 29, (R)-(4′-chlorobiphenyl-2-yl)(1-(4-(4-((R)-4-morpholino-1-(phenylthio)butan-2-ylamino)-3-(trifluoromethylsulfonyl)phenylsulfonylcarbamoyl)phenyl)piperidin-4-yl)methyl diethyl phosphate, hydrochloride salt] | 30 nM | 12 nM
